Structures can show the parent of a compound that is named as a salt.
Tests used:
[1] = system: AH60C cells; experiment: Number of tumor nodules on the liver surface in the AH60C hepatic metastasis model in rats; assay type: in vivo, Male Donryu rats; AH60C cells derived from rat hepatoma; conditions: 5 mg/kg i.v. an hour before surgical invasion (laparothoractomy); 5×10^5 AH60C cells via portal vein; 3 weeks later; Group C (not treated) 27.2±30.0; p<0.01 (Mann-Whitney U)
Experimental: (§1) Using a model of hepatic metastasis of tumor, an experiment was conducted to determine a correlation of hepatic metastasis of tumor with a level of liver lipid peroxide (LPO). In addition, an experiment was effected on the Present Compound in terms of its suppressory effect of liver lipid peroxide (LPO) and suppressory effect on hepatic metastasis of tumor.
(§2) Male Donryu rats (ca. 10-weeks aged) were employed as an experimental animal, while AH60C cells (derived from rat hepatoma) were used as a tumor cell. The rats were divided into three groups, namely a laparothoractomy group (Group LT) undergoing intratracheal intubation, followed by thoraco-laparotomy for one hour, a laparotomy group (Group L) undergoing only laparotomy for one hour and a control group (Group C) undergoing laparotomy, followed by immediate closure of the abdomen. The rats were subjected to laparotomy under anesthesia with ether and Ketalar and given 5×10^5 of AH60C cells through the portal vein to inflict surgical invasion, followed by laparotomy three weeks later to determine the number of tumor nodules on the liver surface. In addition to this, the serum samples were drawn, while the liver and lung tissues were isolated, on Disease Days 1. 2 and 3 to determine their respective levels of lipid peroxide by the TBA method. […]

[2] = system: liver lipid peroxide (LPO); experiment: Level of liver lipid peroxide (LPO, TBA method) after surgical invasion (laparothoractomy) in rats; assay type: in vivo, Male Donryu rats; conditions: 5 mg/kg i.v. an hour before surgical invasion (laparothoractomy); 24 hours later; elevation significantly suppressed, p<0.05 (Mann-Whitney U)
Experimental: as §1, §2

[3] = Acute toxicity (LD50) in rats; conditions: rat, in vivo

Structure (SMILES): Cc1c(C)c2c(c(C)c1OP(=O)(O)OC1=C(O)[C@@H]([C@@H](O)CO)OC1=O)CCC(C)(CCCC(C)CCCC(C)CCCC(C)C)O2 (mixture of isomers) [EPC-K, potassium salt of a phosphoric acid diester of L-ascorbic acid and DL-α-tocopherol]
- number of tumor nodules on the liver surface [1]: 8.9±12.7
- level of liver lipid peroxide (LPO) [2]: 18.9 ± 17.9 nmol/g
- LD50 ([3]; iv): ≥ 100 mg/kg
- LD50 ([3]; po): 5000 mg/kg
